Pest or weed control data for 11 compounds are collected here from patent publication US8754242B2, “Herbicides” (Syngenta Crop Protection LLC, priority 2007, dated 2014).

The structures appear in SMILES notation.

What all share (type): in vivo
In test [1] the test system is Lolium perenne (LOLPE). In words: Test Example 1 post-emergence herbicidal activity. Particulars: 360 h, rate 125 g/ha, evaluated 15 days later, read-out: Post-emergence activity LOLPE (100=total damage to plant; 0=no damage to plant). As to the method: (§1) Monocotyledonous and dicotyledonous test plants were sown in standard soil in pots. After cultivation for one day (pre-emergence) or after 10 days cultivation (post-emergence) under controlled conditions in a glasshouse, the plants were sprayed with an aqueous spray solution derived from the formulation of the technical active ingredient in 0.6 ml acetone and 45 ml formulation solution containing 10.6% Emulsogen EL (Registry number 61791-12-6), 42.2% N-methylpyrrolidone, 42.2% dipropylene glycol monomethyl ether (Registry number 34590-94-8) and 0.2% X-77 (Registry number 11097-66-8). The test plants were then grown in a greenhouse under optimum conditions until, 15 days later for post-emergence and 20 days for pre-emergence, the test was evaluated (100=total damage to plant; 0=no damage to plant).
(§2) Alopecurus myosuroides (ALOMY), Avena fatua (AVEFA), Lolium perenne (LOLPE), Setaria faberi (SETFA), Digitaria sanguinalis (DIGSA), Echinochloa crus-galli (ECHCG)

For test [2], the system named is Digitaria sanguinalis (DIGSA). The experiment in a line: Test Example 1 post-emergence herbicidal activity. Conditions: 360 h, rate 125 g/ha, evaluated 15 days later, read-out: Post-emergence activity DIGSA (100=total damage to plant; 0=no damage to plant). As to the method: as §1, §2
Test [3] has as its system Avena fatua (AVEFA). The experiment in a line: Test Example 1 post-emergence herbicidal activity. Conditions: 360 h, rate 125 g/ha, evaluated 15 days later, read-out: Post-emergence activity AVEFA (100=total damage to plant; 0=no damage to plant). As to the method: as §1, §2
In test [4] the test system is Alopecurus myosuroides (ALOMY). The experiment in a line: Test Example 1 post-emergence herbicidal activity. Particulars: 360 h, rate 125 g/ha, evaluated 15 days later, read-out: Post-emergence activity ALOMY (100=total damage to plant; 0=no damage to plant). As to the method: as §1, §2
In test [5] the test system is Echinochloa crus-galli (ECHCG). In words: Test Example 1 post-emergence herbicidal activity. Particulars: 360 h, rate 125 g/ha, evaluated 15 days later, read-out: Post-emergence activity ECHCG (100=total damage to plant; 0=no damage to plant). As to the method: as §1, §2
Test [6] concerns Setaria faberi (SETFA). The experiment in a line: Test Example 1 post-emergence herbicidal activity. Particulars: 360 h, rate 125 g/ha, evaluated 15 days later, read-out: Post-emergence activity SETFA (100=total damage to plant; 0=no damage to plant). As to the method:
as §1, §2

In test [7] the test system is Lolium perenne (LOLPE). The experiment in a line: Test Example 1 pre-emergence herbicidal activity. Particulars: Lolium perenne, 480 h, rate 250 g/ha, evaluated 20 days later, read-out: Pre-emergence activity LOLPE (100=total damage to plant; 0=no damage to plant). As to the method: as §1, §2
The subject of test [8] is Digitaria sanguinalis (DIGSA). The experiment in a line: Test Example 1 pre-emergence herbicidal activity. Conditions: Digitaria sanguinalis, 480 h, rate 250 g/ha, evaluated 20 days later, read-out: Pre-emergence activity DIGSA (100=total damage to plant; 0=no damage to plant). As to the method: as §1, §2
The test system of test [9] is Avena fatua (AVEFA). The experiment in a line: Test Example 1 pre-emergence herbicidal activity. Conditions: Avena fatua, 480 h, rate 250 g/ha, evaluated 20 days later, read-out: Pre-emergence activity AVEFA (100=total damage to plant; 0=no damage to plant). As to the method: as §1, §2
Test [10] has as its system Alopecurus myosuroides (ALOMY). The experiment in a line: Test Example 1 pre-emergence herbicidal activity. Conditions: Alopecurus myosuroides, 480 h, rate 250 g/ha, evaluated 20 days later, read-out: Pre-emergence activity ALOMY (100=total damage to plant; 0=no damage to plant). As to the method: as §1, §2
Test [11] relates to Echinochloa crus-galli (ECHCG). In words: Test Example 1 pre-emergence herbicidal activity. Conditions: Echinochloa crus-galli, 480 h, rate 250 g/ha, evaluated 20 days later, read-out: Pre-emergence activity ECHCG (100=total damage to plant; 0=no damage to plant). As to the method: as §1, §2
The test system of test [12] is Setaria faberi (SETFA). The experiment in a line: Test Example 1 pre-emergence herbicidal activity. Conditions: Setaria faberi, 480 h, rate 250 g/ha, evaluated 20 days later, read-out: Pre-emergence activity SETFA (100=total damage to plant; 0=no damage to plant). As to the method:
as §1, §2

As for `CCOC(=O)C1=NOC2C1[C@@H]1O[C@H]2[C@H]2C(O)=C(c3c(CC)cc(C)cc3CC)C(=O)[C@H]21` (mixture of isomers) [Example T16], the pest or weed control at 125 g/ha in the test with Lolium perenne (LOLPE) [1] is 50%; in test [2] it was 0%; in the test on Avena fatua (AVEFA) [3] it was 20%; in test [4] it was 40%; in [5] it was 30%; in the test on Setaria faberi (SETFA) [6] it was 0%. In addition, the pest or weed control at 250 g/ha with Lolium perenne (LOLPE) [7] was 0%; in test [8], 0%; in the test with Avena fatua (AVEFA) [9], 10%; in [10], 0%; in test [11], 0%; in the test on Setaria faberi (SETFA) [12], 10%.
`Cc1cc(C)c(C2=C(O)[C@H]3[C@@H](C2=O)[C@@H]2C=C[C@@]3(C(C)O)O2)c(C)c1` (mixture of isomers) [Example T39]: the pest or weed control at 125 g/ha with Lolium perenne (LOLPE) [1] came to 0%; in test [2] it was 70%; in the test with Avena fatua (AVEFA) [3] it was 20%; in test [4], 10%; in test [5] it was 70%; in the test with Setaria faberi (SETFA) [6] it was 60%. Besides, the pest or weed control at 250 g/ha turned out to be 30% with Lolium perenne (LOLPE) [7]; 30% in test [8]; 20% with Avena fatua (AVEFA) [9]; 10% in [10]; 30% in [11]; 40% in the test with Setaria faberi (SETFA) [12].
Consider `C#CCOC(=O)OC1=C(c2c(C)cc(C)cc2C)C(=O)[C@@H]2[C@H]1[C@H]1CC[C@@H]2O1` (racemic) [Example P3], for which the pest or weed control at 125 g/ha in the test on Lolium perenne (LOLPE) [1] worked out at 100%; in [2] it was 70%; with Avena fatua (AVEFA) [3], 90%; in test [4], 100%; in test [5], 100%; with Setaria faberi (SETFA) [6], 80%. In addition, the pest or weed control at 250 g/ha amounted to 100% in the test with Lolium perenne (LOLPE) [7]; 90% in [8]; 100% in the test with Avena fatua (AVEFA) [9]; 100% in test [10]; 100% in test [11]; 90% in the test on Setaria faberi (SETFA) [12].
On to `Cc1cc(C)c(C2=C(OC(=O)OC(C)C)[C@H]3[C@@H](C2=O)[C@@H]2CC[C@H]3O2)c(C)c1` (racemic) [Example P4], for which the pest or weed control at 125 g/ha in the test with Lolium perenne (LOLPE) [1] was 100%; in [2] it was 80%; with Avena fatua (AVEFA) [3], 90%; in test [4], 100%; in [5] it was 100%; in the test with Setaria faberi (SETFA) [6], 90%. The pest or weed control at 250 g/ha turned out to be 100% in the test on Lolium perenne (LOLPE) [7]; 90% in test [8]; 100% with Avena fatua (AVEFA) [9]; 100% in [10]; 90% in [11]; 70% with Setaria faberi (SETFA) [12].
As to `Cc1cc(C)c(C2=C(OC(=O)C3CC3)[C@H]3[C@@H](C2=O)[C@@H]2CC[C@H]3O2)c(C)c1` (racemic) [Example P5], the pest or weed control at 125 g/ha was 100% in the test on Lolium perenne (LOLPE) [1]; 60% in test [2]; 90% in the test on Avena fatua (AVEFA) [3]; 100% in [4]; 100% in test [5]; 80% in the test on Setaria faberi (SETFA) [6]. In addition, the pest or weed control at 250 g/ha is 100% with Lolium perenne (LOLPE) [7]; 100% in [8]; 100% in the test on Avena fatua (AVEFA) [9]; 100% in test [10]; 90% in test [11]; 90% in the test with Setaria faberi (SETFA) [12].
As to `CCc1cc(C)cc(CC)c1C1=C(OC(=O)OCC(C)C)[C@H]2[C@@H](C1=O)[C@@H]1CC[C@H]2O1` (racemic) [Example P24], the pest or weed control at 125 g/ha (in test [4]; in [5]; with Setaria faberi (SETFA) [6]) was 100% throughout. Besides, the pest or weed control at 250 g/ha was found to be 100% with Lolium perenne (LOLPE) [7]; 100% in test [8]; 90% with Avena fatua (AVEFA) [9]; 90% in test [10]; 100% in test [11]; 100% with Setaria faberi (SETFA) [12].
With `Cc1cc(C)c(C2=C(OC(=O)C(C)(C)C)[C@H]3[C@@H](C2=O)[C@@H]2CC[C@H]3O2)c(C)c1` (racemic) [Example P33, (1RS,2SR,6RS,7SR)-5-oxo-4-(2,4,6-trimethylphenyl)-10-oxatricyclo[5.2.1.0^2,6]dec-3-en-3-yl 2,2-dimethylpropionate], the pest or weed control at 125 g/ha in the test on Lolium perenne (LOLPE) [1] was found to be 80%; in [2] it was 70%; in the test with Avena fatua (AVEFA) [3], 70%; in test [4], 80%; in test [5] it was 90%; with Setaria faberi (SETFA) [6], 70%. The pest or weed control at 250 g/ha in the test on Lolium perenne (LOLPE) [7] was found to be 100%; in test [8], 80%; with Avena fatua (AVEFA) [9], 70%; in test [10], 90%; with Setaria faberi (SETFA) [12], 80%.
Regarding `COC[C@]12CC[C@H](O1)[C@@H]1C(=O)C(c3c(C)cc(C)cc3C)=C(OC(=O)C3CC3)[C@@H]12` (single isomer, unassigned) [Example P30], the pest or weed control at 125 g/ha came to 70% in the test on Lolium perenne (LOLPE) [1]; 90% in test [2]; 80% in [4]; 100% in test [5]; 80% in the test with Setaria faberi (SETFA) [6]. The pest or weed control at 250 g/ha in the test on Lolium perenne (LOLPE) [7] worked out at 90%; in test [8] it was 80%; in the test on Avena fatua (AVEFA) [9], 80%; in [10], 80%; in [11], 90%; in the test with Setaria faberi (SETFA) [12], 80%.
As to `CSC[C@]12CC[C@H](O1)[C@@H]1C(=O)C(c3c(C)cc(C)cc3C)=C(O)[C@@H]12` [Example T53], the pest or weed control at 250 g/ha is 10% with Lolium perenne (LOLPE) [7]; 10% in test [8]; 20% in the test on Avena fatua (AVEFA) [9]; 10% in [10]; 0% in test [11]; 10% with Setaria faberi (SETFA) [12].
Regarding `CCc1cc(C)cc(CC)c1C1=C(O)[C@@H]2[C@@H]3O[C@@H](C[C@H]3c3cccc(Cl)c3)[C@@H]2C1=O` [Example T148], the pest or weed control at 250 g/ha in the test on Lolium perenne (LOLPE) [7] came out at 70%; in [8], 70%; in the test with Avena fatua (AVEFA) [9] it was 50%; in test [10], 60%; in [11] it was 80%; in the test with Setaria faberi (SETFA) [12], 60%.
Turning to `CCc1cc(C)cc(CC)c1C1=C(O)[C@@H]2[C@@H]3O[C@@H](C[C@H]3c3cccc(F)c3C#N)[C@@H]2C1=O` [Example T157], the pest or weed control at 125 g/ha was found to be 40% with Lolium perenne (LOLPE) [1]; 60% in test [2]; 60% in the test on Avena fatua (AVEFA) [3]; 60% in test [4]; 100% in [5]; 60% with Setaria faberi (SETFA) [6]. Besides, the pest or weed control at 250 g/ha with Lolium perenne (LOLPE) [7] is 70%; in test [8], 0%; in [10], 30%; in [11], 50%; with Setaria faberi (SETFA) [12], 0%.
